# Activity calls are given as the source filed them. The calls are words filed in the database; no cut-off is given here.
# How the values were obtained:
# [1] = target: Eukaryotic initiation factor 4A-I (Homo sapiens, UniProt P60842, R110M); experiment: Inhibition of human recombinant N-terminal His6-tagged eIF4A R110M mutant expressed in Escherichia coli BL21 CodonPlus cells using ATP and yeast RNA as substrate preincubated with enzyme for 20 mins followed by susbtrate addition and measured after 4 hrs by Malachite green ATPase assay
# Chain of Eukaryotic initiation factor 4A-I (Homo sapiens, UniProt P60842, R110M) (P60842 2-406 R110M limits assumed): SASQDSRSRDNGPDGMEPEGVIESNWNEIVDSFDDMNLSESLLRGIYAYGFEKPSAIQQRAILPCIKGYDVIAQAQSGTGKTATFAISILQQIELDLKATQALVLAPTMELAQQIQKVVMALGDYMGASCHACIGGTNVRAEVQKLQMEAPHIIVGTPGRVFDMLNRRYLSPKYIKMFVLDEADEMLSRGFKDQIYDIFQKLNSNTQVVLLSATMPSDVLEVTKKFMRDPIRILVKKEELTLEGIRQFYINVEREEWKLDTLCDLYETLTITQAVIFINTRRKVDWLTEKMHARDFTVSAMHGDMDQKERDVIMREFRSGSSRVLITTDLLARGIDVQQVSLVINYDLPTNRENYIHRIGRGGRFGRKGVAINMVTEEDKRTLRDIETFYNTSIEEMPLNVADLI
# [2] = target: Eukaryotic initiation factor 4A-I (Homo sapiens, UniProt P60842, T158V); experiment: Inhibition of human recombinant N-terminal His6-tagged eIF4A T158V mutant expressed in Escherichia coli BL21 CodonPlus cells using ATP and yeast RNA as substrate preincubated with enzyme for 20 mins followed by susbtrate addition and measured after 4 hrs by Malachite green ATPase assay
# Chain of Eukaryotic initiation factor 4A-I (Homo sapiens, UniProt P60842, T158V) (P60842 2-406 T158V limits assumed): as the sequence (P60842 2-406 R110M limits assumed) above, with M109R, T157V counted along it
# [3] = target: Eukaryotic initiation factor 4A-I (Homo sapiens, UniProt P60842, T158A); experiment: Inhibition of human recombinant N-terminal His6-tagged eIF4A T158A mutant expressed in Escherichia coli BL21 CodonPlus cells using ATP and yeast RNA as substrate preincubated with enzyme for 20 mins followed by susbtrate addition and measured after 4 hrs by Malachite green ATPase assay
# Chain of Eukaryotic initiation factor 4A-I (Homo sapiens, UniProt P60842, T158A) (P60842 2-406 T158A limits assumed): as the sequence (P60842 2-406 R110M limits assumed) above, with M109R, T157A counted along it
# [4] = target: T1, Eukaryotic initiation factor 4A-I (Homo sapiens, UniProt P60842); experiment: Uncompetitive inhibition of human recombinant N-terminal His6-tagged eIF4A expressed in Escherichia coli BL21 CodonPlus cells assessed as decrease in Km and Vmax of ATP using varying concentrations of ATP and 250 ug/ml yeast RNA as substrate preincubated with enzyme for 20 mins followed by substrate addition and measured after 1 to 7 hrs by Malachite green ATPase assay; conditions: time 80-440 min
# T1 sequence (P60842 whole entry): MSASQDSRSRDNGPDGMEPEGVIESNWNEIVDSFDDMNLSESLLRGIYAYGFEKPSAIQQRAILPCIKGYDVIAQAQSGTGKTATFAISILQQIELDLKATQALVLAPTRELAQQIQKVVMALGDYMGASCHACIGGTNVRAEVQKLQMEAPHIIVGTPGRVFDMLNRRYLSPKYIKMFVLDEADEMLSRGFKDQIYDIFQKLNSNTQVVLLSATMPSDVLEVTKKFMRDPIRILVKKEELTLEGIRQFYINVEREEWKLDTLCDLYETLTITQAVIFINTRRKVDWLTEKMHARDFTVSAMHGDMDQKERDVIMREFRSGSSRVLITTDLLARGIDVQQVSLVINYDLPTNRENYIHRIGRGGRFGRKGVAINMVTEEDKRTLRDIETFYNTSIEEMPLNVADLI
# [5] = target: T1, Eukaryotic initiation factor 4A-I; experiment: Competitive inhibition of human recombinant N-terminal His6-tagged eIF4A expressed in Escherichia coli BL21 CodonPlus cells assessed as […] with constant Vmax of RNA using 250 uM ATP and varying concentration of yeast RNA as substrate preincubated with enzyme for 20 mins followed by substrate addition and measured after 1 to 7 hrs by Malachite green ATPase assay; conditions: time 80-440 min
# Reticulocyte [6] = experiment: Inhibition of IRES-dependent translation of renilla luciferase in rabbit reticulocyte lysates using bicistronic luciferase reporter [pSP/(CAG)33/FF/HCV/Ren.pA51] incubated for 90 mins by luciferase reporter gene based luminescence analysis; format: functional, subcellular; conditions: Oryctolagus cuniculus
# [7] = target: T1, Eukaryotic initiation factor 4A-I; experiment: Displacement of MANT-ATP from human recombinant N-terminal His6-tagged eIF4A expressed in Escherichia coli BL21 CodonPlus cells at 200 uM preincubated with enzyme and yeast RNA for 20 mins followed by MANT-ATP addition for 30 mins by fluorescence polarization assay; conditions: time 50.0 min
# [8] = target: Eukaryotic initiation factor 4A-I (Homo sapiens, UniProt P60842, R110E); experiment: Inhibition of human recombinant N-terminal His6-tagged eIF4A R110E mutant expressed in Escherichia coli BL21 CodonPlus cells using ATP and yeast RNA as substrate preincubated with enzyme for 20 mins followed by susbtrate addition and measured after 4 hrs by Malachite green ATPase assay
# Chain of Eukaryotic initiation factor 4A-I (Homo sapiens, UniProt P60842, R110E) (P60842 2-406 R110E limits assumed): as the sequence (P60842 2-406 R110M limits assumed) above, with M109E counted along it
# [9] = target: T1, Eukaryotic initiation factor 4A-I; experiment: Binding affinity to eIF4A in human A549 cells assessed as increase in thermal stability of the protein incubated for 90 mins by CETSA analysis; format: cell-based; conditions: dose 0.041-10 µM
# [10] = target: T1, Eukaryotic initiation factor 4A-I; experiment: Inhibition of helicase activity of human recombinant N-terminal His6-tagged eIF4A expressed in Escherichia coli BL21 CodonPlus cells using Cy3-labeled RNA strand and unlabeled DNA strand by native PAGE analysis
# [11] = target: T1, Eukaryotic initiation factor 4A-I; experiment: Displacement of FAM-[AG]8 from human recombinant N-terminal His6-tagged eIF4A expressed in Escherichia coli BL21 CodonPlus cells preincubated with enzyme for 20 mins followed by FAM-[AG]8 addition for 30 mins by fluorescence polarization assay; conditions: time 50.0 min
# [12] = target: T1, Eukaryotic initiation factor 4A-I; experiment: Inhibition of helicase activity of human recombinant N-terminal His6-tagged eIF4A expressed in Escherichia coli BL21 CodonPlus cells assessed as decrease in single stranded signal using Cy3-labeled RNA strand and unlabeled DNA strand by native PAGE analysis
# [13] = target: Eukaryotic initiation factor 4A-I (Homo sapiens, UniProt P60842, R311E); experiment: Inhibition of human recombinant N-terminal His6-tagged eIF4A R311E mutant expressed in Escherichia coli BL21 CodonPlus cells using ATP and yeast RNA as substrate preincubated with enzyme for 20 mins followed by susbtrate addition and measured after 4 hrs by Malachite green ATPase assay
# Chain of Eukaryotic initiation factor 4A-I (Homo sapiens, UniProt P60842, R311E) (P60842 2-406 R311E limits assumed): as the sequence (P60842 2-406 R110M limits assumed) above, with M109R, R310E counted along it
# [14] = target: T1, Eukaryotic initiation factor 4A-I; experiment: Inhibition of helicase activity of human recombinant N-terminal His6-tagged eIF4A expressed in Escherichia coli BL21 CodonPlus cells assessed as increase in double stranded signal using Cy3-labeled RNA strand and unlabeled DNA strand by native PAGE analysis
# [15] = target: Eukaryotic initiation factor 4A-I (Homo sapiens, UniProt P60842, R311K); experiment: Inhibition of human recombinant N-terminal His6-tagged eIF4A R311K mutant expressed in Escherichia coli BL21 CodonPlus cells using ATP and yeast RNA as substrate preincubated with enzyme for 20 mins followed by susbtrate addition and measured after 4 hrs by Malachite green ATPase assay
# Chain of Eukaryotic initiation factor 4A-I (Homo sapiens, UniProt P60842, R311K) (P60842 2-406 R311K limits assumed): as the sequence (P60842 2-406 R110M limits assumed) above, with M109R, R310K counted along it
# [16] = target: Eukaryotic initiation factor 4A-I (Homo sapiens, UniProt P60842, R110L); experiment: Inhibition of human recombinant N-terminal His6-tagged eIF4A R110L mutant expressed in Escherichia coli BL21 CodonPlus cells using ATP and yeast RNA as substrate preincubated with enzyme for 20 mins followed by susbtrate addition and measured after 4 hrs by Malachite green ATPase assay
# Chain of Eukaryotic initiation factor 4A-I (Homo sapiens, UniProt P60842, R110L) (P60842 2-406 R110L limits assumed): as the sequence (P60842 2-406 R110M limits assumed) above, with M109L counted along it
# Reticulocyte [17] = experiment: Inhibition of eIF4A in rabbit reticulocyte lysate assessed as inhibition of cap-dependent translation of firefly luciferase using bicistronic luciferase reporter [pSP/(CAG)33/FF/HCV/Ren.pA51] incubated for 90 mins by luciferase reporter gene based luminescence analysis; format: subcellular; conditions: Oryctolagus cuniculus
# [18] = target: T1, Eukaryotic initiation factor 4A-I; experiment: Binding affinity to human recombinant N-terminal His6-tagged eIF4A expressed in Escherichia coli BL21 CodonPlus cells assessed as increase in melting temperature at 3.13 to 50 uM incubated for 5 mins by differential scanning fluorimetry; conditions: dose 3.13-50 µM
# [19] = test system: Eukaryotic initiation factor 4A-I (Homo sapiens), P60842 [R110K]; experiment: Inhibition of human recombinant N-terminal His6-tagged eIF4A R110K mutant expressed in Escherichia coli BL21 CodonPlus cells using ATP and yeast RNA as substrate preincubated with enzyme for 20 mins followed by susbtrate addition and measured after 4 hrs by Malachite green ATPase assay; conditions: time 260.0 min
# Chain of Eukaryotic initiation factor 4A-I (Homo sapiens), P60842 [R110K] (P60842 whole entry R110K): as the sequence (P60842 whole entry) above, with R110K counted along it
# BJAB = experiment: Cytotoxicity against human BJAB cells assessed as reduction in cell viability measured after 72 hrs by CellTiter-Glo luminescent assay; format: functional, cell-based; conditions: Homo sapiens, BJAB, 72 h; read-out: EC50
compound,measurement,setting,value
CCCCc1ccc(-c2ccc(-c3cc(C(=O)O)c4cc([N+](=O)[O-])ccc4n3)o2)cc1,IC50,[1],> 50 µM
same,IC50,[2],> 50 µM
same,IC50,[3],> 50 µM
same,inhibition,[4],Active
same,inhibition,[5],Active
same,inhibition,Reticulocyte [6],inactive
same,inhibition,[7],inactive
same,IC50,[8],> 50 µM
same,Activity,[9],Dose-Dependent Effect
same,IC50,[10],6.58 µM
same,inhibition,[11],Active
same,inhibition,[12],Active
same,IC50,[13],> 50 µM
same,inhibition,[14],Active
same,IC50,[15],> 50 µM
same,IC50,[16],> 50 µM
same,inhibition,Reticulocyte [17],Active
same,Activity,[18],Active
same,inhibition,[19],Active
same,EC50,BJAB,0.463 µM

# Source: ChEMBL document CHEMBL5241107, “Discovery of an eIF4A Inhibitor with a Novel Mechanism of Action” (J Med Chem, 2021)
